In patent publication US20220125765A1, “PHARMACEUTICAL COMBINATIONS COMPRISING MEBENDAZOLE AND A STRONG OR MODERATE CYP1A2 INHIBITOR” (ZEPHAPHARM LTD, priority 2019, published 2022):
Read-outs that look alike come from different tables or passages of the source.

Assays:
[1] = molecular target: T1, CYP1A2 (Homo sapiens, UniProt P05177); assay: Cytochrome P450 reaction phenotyping, recombinant CYP1A2 (Bactosomes); conditions: for Compound Remaining (% of 0 min): CYP1A2, 5 μM
T1 sequence (P05177 1-516): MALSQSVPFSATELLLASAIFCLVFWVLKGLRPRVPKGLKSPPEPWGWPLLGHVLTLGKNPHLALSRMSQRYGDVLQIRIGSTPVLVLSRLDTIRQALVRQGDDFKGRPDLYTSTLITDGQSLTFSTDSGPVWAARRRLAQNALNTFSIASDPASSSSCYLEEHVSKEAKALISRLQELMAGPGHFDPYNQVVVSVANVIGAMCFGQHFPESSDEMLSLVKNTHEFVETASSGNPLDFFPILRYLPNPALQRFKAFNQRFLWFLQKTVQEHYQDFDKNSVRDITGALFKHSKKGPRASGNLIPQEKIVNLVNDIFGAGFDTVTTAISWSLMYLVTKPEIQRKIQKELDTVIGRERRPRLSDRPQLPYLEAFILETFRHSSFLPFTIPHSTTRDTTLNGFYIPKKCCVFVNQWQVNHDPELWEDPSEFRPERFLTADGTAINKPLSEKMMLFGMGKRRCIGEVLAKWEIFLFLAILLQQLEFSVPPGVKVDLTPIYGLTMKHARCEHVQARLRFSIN
Experimental: (§1) Incubations were also performed using control Bactosomes™ (no P450 enzymes present) to reveal any non-enzymatic degradation. Control compounds known to be metabolised specifically by each P450 isoform were included. All incubations were performed singularly for each test compound.
(§2) Incubations were also performed using control Bactosomes™ (no P450 enzymes present) to reveal any non-enzymatic degradation. Control compounds known to be metabolised specifically by each P450 isoform were included. All incubations were performed singularly for each test compound. […] The reactions were stopped by transferring an aliquot of incubate to quench solvent at the appropriate time points, in a 1:3 ratio. The termination plates were centrifuged at 3,000 rpm for 20 min at 4° C. to precipitate the protein.

[2] = molecular target: CYP3A4 (Homo sapiens, UniProt P08684); assay: Cytochrome P450 reaction phenotyping, recombinant CYP3A4 (Bactosomes)
CYP3A4, sequence (P08684 whole entry): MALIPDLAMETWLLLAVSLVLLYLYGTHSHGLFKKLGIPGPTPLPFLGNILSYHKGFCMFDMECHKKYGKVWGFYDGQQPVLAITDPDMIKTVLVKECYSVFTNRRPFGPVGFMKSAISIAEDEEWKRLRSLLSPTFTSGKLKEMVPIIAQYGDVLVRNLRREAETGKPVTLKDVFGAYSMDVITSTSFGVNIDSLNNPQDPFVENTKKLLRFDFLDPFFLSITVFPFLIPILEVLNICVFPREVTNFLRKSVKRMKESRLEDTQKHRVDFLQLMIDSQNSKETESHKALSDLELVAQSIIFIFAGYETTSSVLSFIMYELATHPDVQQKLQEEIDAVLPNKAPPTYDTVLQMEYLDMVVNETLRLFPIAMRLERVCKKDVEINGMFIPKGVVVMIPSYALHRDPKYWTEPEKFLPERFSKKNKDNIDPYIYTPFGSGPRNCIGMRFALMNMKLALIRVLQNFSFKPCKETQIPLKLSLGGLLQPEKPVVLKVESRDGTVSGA
Experimental: as §1, §2

[3] = system: NBXF IMR-32; assay: 2D monolayer CellTiter-Blue viability, neuroblastoma IMR-32; type: cell-based; conditions: 72 h
Experimental: (§3) Seventeen compounds, including mebendazole (Batch no. […] Efficacy of compounds was assessed using CellTiter-Blue® Cell Viability Assay. Anti-tumor activity is expressed as absolute and relative IC50 and IC70 values, calculated by non-linear regression analysis.

[4] = system: NBXF SHEP; assay: 2D monolayer CellTiter-Blue viability, neuroblastoma SHEP; type: cell-based; conditions: 72 h
Experimental: as §3

[5] = system: NBXF SK-N-BE(2); assay: 2D monolayer CellTiter-Blue viability, neuroblastoma SK-N-BE(2); type: cell-based; conditions: 72 h
Experimental: as §3

[6] = system: SXFS RH-30; assay: 2D monolayer CellTiter-Blue viability, soft tissue sarcoma RH-30; type: cell-based; conditions: 72 h
Experimental: as §3

[7] = system: OVXF 1023L; assay: 2D monolayer CellTiter-Blue viability, ovarian cancer OVXF 1023L; type: cell-based; conditions: for IC50: Homo sapiens, OVXF1023; for Test/Control (%) at Drug Concentration: 72 h
Experimental: (§4) Mebendazole was tested in vitro across a panel of 12 tumor cell lines of ovarian and renal cancer by using a 2D monolayer assay. […] OVXF 899L and RXF 486L are P-gp expressing, multidrug resistant cell lines.
(§5) Anti-tumor activity is expressed as absolute and relative IC50/70 values, calculated by 4-parameter non-linear curve fit.

[8] = system: RXF 1220L; assay: 2D monolayer CellTiter-Blue viability, renal cancer RXF 1220L; type: cell-based; conditions: for Test/Control (%) at Drug Concentration: 72 h
Experimental: as §4, §5

COC(=O)Nc1nc2ccc(C(=O)c3ccccc3)cc2[nH]1 [Mebendazole, methyl N-(6-benzoyl-1H-benzimidazol-2-yl)carbamate]
Compound Remaining (% of 0 min) ([1]; 0 min): 100 % of 0 min | Compound Remaining (% of 0 min) ([1]; 5 min): 80.1 % of 0 min | Compound Remaining (% of 0 min) ([1]; 15 min): 45.8 % of 0 min | Compound Remaining (% of 0 min) ([1]; 30 min): 20.7 % of 0 min | Compound Remaining (% of 0 min) ([1]; 45 min): 9.88 % of 0 min | half-life at 5 μM ([1]; human, recombinant CYP1A2 (Bactosomes), pH 7.4): 0.222 h | Compound Remaining (% of 0 min) ([2]; CYP3A4, 5 μM, 0 min): 100 % of 0 min | Compound Remaining (% of 0 min) ([2]; CYP3A4, 5 μM, 5 min): 95.1 % of 0 min | Compound Remaining (% of 0 min) ([2]; CYP3A4, 5 μM, 15 min): 85.4 % of 0 min | Compound Remaining (% of 0 min) ([2]; CYP3A4, 5 μM, 30 min): 105 % of 0 min | Compound Remaining (% of 0 min) ([2]; CYP3A4, 5 μM, 45 min): 104 % of 0 min | % compound remaining ([2]; CYP3A4, 5 μM, time not stated): > 87.5% | t1/2 ([2]; CYP3A4, substrate 5 μM): >2.25 h | half-life at 5 μM ([2]; human, recombinant CYP3A4 (Bactosomes), pH 7.4): > 2.25 h | Test/Control (%) at Drug Concentration ([3]; IMR-32, 1.0E+00 μM): 1% | Test/Control (%) at Drug Concentration ([3]; IMR-32, 1.0E+01 μM): 0% | Test/Control (%) at Drug Concentration ([3]; IMR-32, 1.0E+02 μM): −2% | Test/Control (%) at Drug Concentration ([3]; IMR-32, 1.0E−01 μM): 81% | Test/Control (%) at Drug Concentration ([3]; IMR-32, 1.0E−02 μM): 95% | Test/Control (%) at Drug Concentration ([3]; IMR-32, 3.2E+00 μM): 1% | Test/Control (%) at Drug Concentration ([3]; IMR-32, 3.2E+01 μM): −1% | Test/Control (%) at Drug Concentration ([3]; IMR-32, 3.2E−01 μM): 10% | Test/Control (%) at Drug Concentration ([3]; IMR-32, 3.2E−02 μM): 94% | Test/Control (%) at Drug Concentration ([3]; IMR-32, 3.2E−03 μM): 97% | Test/Control (%) at Drug Concentration ([4]; 1.0E+00 μM): 20% | Test/Control (%) at Drug Concentration ([4]; 1.0E+01 μM): 20% | Test/Control (%) at Drug Concentration ([4]; 1.0E+02 μM): 16% | Test/Control (%) at Drug Concentration ([4]; 1.0E−01 μM): 72% | Test/Control (%) at Drug Concentration ([4]; 1.0E−02 μM): 72% | Test/Control (%) at Drug Concentration ([4]; 3.2E+00 μM): 27% | Test/Control (%) at Drug Concentration ([4]; 3.2E+01 μM): 18% | Test/Control (%) at Drug Concentration ([4]; 3.2E−01 μM): 47% | Test/Control (%) at Drug Concentration ([4]; 3.2E−02 μM): 68% | Test/Control (%) at Drug Concentration ([4]; 3.2E−03 μM): 72% | Test/Control (%) at Drug Concentration ([5]; 1.0E+00 μM): 13% | Test/Control (%) at Drug Concentration ([5]; 1.0E+01 μM): 3% | Test/Control (%) at Drug Concentration ([5]; 1.0E+02 μM): −1% | Test/Control (%) at Drug Concentration ([5]; 1.0E−01 μM): 55% | Test/Control (%) at Drug Concentration ([5]; 1.0E−02 μM): 85% | Test/Control (%) at Drug Concentration ([5]; 3.2E+00 μM): 6% | Test/Control (%) at Drug Concentration ([5]; 3.2E+01 μM): 2% | Test/Control (%) at Drug Concentration ([5]; 3.2E−01 μM): 23% | Test/Control (%) at Drug Concentration ([5]; 3.2E−02 μM): 80% | Test/Control (%) at Drug Concentration ([5]; 3.2E−03 μM): 87% | Test/Control (%) at Drug Concentration ([6]; RH-30, 1.0E+00 μM): 19% | Test/Control (%) at Drug Concentration ([6]; RH-30, 1.0E+01 μM): 20% | Test/Control (%) at Drug Concentration ([6]; RH-30, 1.0E+02 μM): 5% | Test/Control (%) at Drug Concentration ([6]; RH-30, 1.0E−01 μM): 89% | Test/Control (%) at Drug Concentration ([6]; RH-30, 1.0E−02 μM): 104% | Test/Control (%) at Drug Concentration ([6]; RH-30, 3.2E+00 μM): 21% | Test/Control (%) at Drug Concentration ([6]; RH-30, 3.2E+01 μM): 13% | Test/Control (%) at Drug Concentration ([6]; RH-30, 3.2E−01 μM): 20% | Test/Control (%) at Drug Concentration ([6]; RH-30, 3.2E−02 μM): 95% | Test/Control (%) at Drug Concentration ([6]; RH-30, 3.2E−03 μM): 111% | IC50 ([7]; OVXF 1023, 72 h, read-out: Abs. IC50): > 3.2 µM | IC50 ([7]; OVXF 1023, 72 h, read-out: Rel. IC50): > 3.2 µM | Test/Control (%) at Drug Concentration ([7]; OVXF 1023, 1.0E+00 μM): 69% | Test/Control (%) at Drug Concentration ([7]; OVXF 1023, 1.0E−01 μM): 94% | Test/Control (%) at Drug Concentration ([7]; OVXF 1023, 1.0E−02 μM): 101% | Test/Control (%) at Drug Concentration ([7]; OVXF 1023, 1.0E−03 μM): 104% | Test/Control (%) at Drug Concentration ([7]; OVXF 1023, 1.0E−04 μM): 107% | Test/Control (%) at Drug Concentration ([7]; OVXF 1023, 3.2E+00 μM): 62% | Test/Control (%) at Drug Concentration ([7]; OVXF 1023, 3.2E−01 μM): 82% | Test/Control (%) at Drug Concentration ([7]; OVXF 1023, 3.2E−02 μM): 98% | Test/Control (%) at Drug Concentration ([7]; OVXF 1023, 3.2E−03 μM): 101% | Test/Control (%) at Drug Concentration ([7]; OVXF 1023, 3.2E−04 μM): 103% | Abs. IC70 ([7]; OVXF 1023, 72 h): >3.200 µM | Rel. IC70 ([7]; OVXF 1023, 72 h): >3.200 µM | Bot. (%) ([7]; OVXF 1023, 72 h, curve fit): 2% | Top (%) ([7]; OVXF 1023, 72 h, curve fit): 105% | Test/Control (%) at Drug Concentration ([8]; RXF 1220, 1.0E+00 μM): 70% | Test/Control (%) at Drug Concentration ([8]; RXF 1220, 1.0E−01 μM): 99% | Test/Control (%) at Drug Concentration ([8]; RXF 1220, 1.0E−02 μM): 113% | Test/Control (%) at Drug Concentration ([8]; RXF 1220, 1.0E−03 μM): 98% | Test/Control (%) at Drug Concentration ([8]; RXF 1220, 1.0E−04 μM): 99% | Test/Control (%) at Drug Concentration ([8]; RXF 1220, 3.2E+00 μM): 61% | Test/Control (%) at Drug Concentration ([8]; RXF 1220, 3.2E−01 μM): 83% | Test/Control (%) at Drug Concentration ([8]; RXF 1220, 3.2E−02 μM): 99% | Test/Control (%) at Drug Concentration ([8]; RXF 1220, 3.2E−03 μM): 106% | Test/Control (%) at Drug Concentration ([8]; RXF 1220, 3.2E−04 μM): 102% | Abs. IC70 ([8]; RXF 1220, 72 h): >3.200 µM | Rel. IC70 ([8]; RXF 1220, 72 h): 0.751 µM | Bot. (%) ([8]; RXF 1220, 72 h, curve fit): 59% | Top (%) ([8]; RXF 1220, 72 h, curve fit): 103% | IC50 ([8]; RXF 1220, 72 h, read-out: Abs. IC50): > 3.2 µM | IC50 ([8]; RXF 1220, 72 h, read-out: Rel. IC50): 0.398 µM
